Assay results reported in article PMC3759966 (The Biochemical journal, 2009).

Assays:
[1] = test system: ERM protein phosphorylation (site equivalent to Thr567 of ezrin); experiment: ERM protein phosphorylation in HEK-293 cells; format: cell-based, human; settings: 10 μM, 1 h; in the presence or absence of G14V-Rho
[2] = test system: phosphorylation of MYPT at Thr850; experiment: MYPT Thr850 phosphorylation in HEK-293 cells; format: cell-based, human; settings: 10 μM, 1 h; HEK-293 cells with or without G14V-Rho
[3] = test system: panel of 85 protein kinases; experiment: Selectivity over kinase panel; format: biochemical; settings: 1 μM; out of the 85 kinases profiled
[4] = target: T1, GST–LRRK2[G2019S]-(1326–2527) (Homo sapiens, UniProt Q5S007, G2019S); experiment: Peptide kinase assay with inhibitors; format: biochemical; settings: for inhibition of LRRK2[G2019S] (in words): 100 μM ATP
T1 sequence (Q5S007 1326-2527 G2019S): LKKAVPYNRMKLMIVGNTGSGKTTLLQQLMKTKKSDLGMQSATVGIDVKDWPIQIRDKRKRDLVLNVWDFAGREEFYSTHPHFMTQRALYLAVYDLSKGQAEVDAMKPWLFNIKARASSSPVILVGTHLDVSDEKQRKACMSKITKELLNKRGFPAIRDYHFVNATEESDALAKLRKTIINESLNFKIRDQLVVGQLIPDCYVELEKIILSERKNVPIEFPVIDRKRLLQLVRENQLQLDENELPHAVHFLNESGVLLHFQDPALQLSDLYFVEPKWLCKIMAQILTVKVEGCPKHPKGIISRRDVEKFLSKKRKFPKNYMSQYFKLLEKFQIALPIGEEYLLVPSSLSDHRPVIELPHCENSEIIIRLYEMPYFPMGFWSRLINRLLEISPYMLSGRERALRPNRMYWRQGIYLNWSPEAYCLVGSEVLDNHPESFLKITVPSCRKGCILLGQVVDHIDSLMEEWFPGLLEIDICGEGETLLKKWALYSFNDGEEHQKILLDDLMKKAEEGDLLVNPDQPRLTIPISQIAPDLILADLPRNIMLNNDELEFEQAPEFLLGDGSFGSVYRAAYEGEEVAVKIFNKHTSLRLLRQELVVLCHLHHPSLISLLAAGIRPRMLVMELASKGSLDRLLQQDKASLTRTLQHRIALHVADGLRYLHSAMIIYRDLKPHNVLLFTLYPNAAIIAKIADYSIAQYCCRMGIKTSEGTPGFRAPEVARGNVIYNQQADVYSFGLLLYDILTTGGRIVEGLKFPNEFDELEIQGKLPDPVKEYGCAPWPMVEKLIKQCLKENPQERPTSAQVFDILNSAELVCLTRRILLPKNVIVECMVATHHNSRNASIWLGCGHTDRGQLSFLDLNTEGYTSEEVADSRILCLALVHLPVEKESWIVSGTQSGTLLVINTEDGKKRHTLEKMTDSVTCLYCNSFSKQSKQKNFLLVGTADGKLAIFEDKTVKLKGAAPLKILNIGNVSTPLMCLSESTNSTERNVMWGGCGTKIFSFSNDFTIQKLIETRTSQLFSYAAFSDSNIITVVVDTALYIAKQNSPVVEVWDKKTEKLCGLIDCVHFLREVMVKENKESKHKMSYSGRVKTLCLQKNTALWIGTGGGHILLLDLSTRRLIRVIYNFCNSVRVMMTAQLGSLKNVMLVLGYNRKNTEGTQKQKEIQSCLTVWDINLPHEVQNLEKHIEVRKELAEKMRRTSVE

[5] = target: endogenous LRRK2 from Swiss-3T3 cells (Mus musculus, UniProt Q5S006); experiment: Kinase assay of immunoprecipitated endogenous LRRK2 with Nictide; format: biochemical; settings: Swiss-3T3 immunoprecipitates, Nictide substrate
TTK = target: T2, TTK (Homo sapiens, UniProt P33981); experiment: Kinase profiling panel; format: biochemical; settings: read-out: percentage of kinase activity compared with control
T2 sequence (P33981 1-857): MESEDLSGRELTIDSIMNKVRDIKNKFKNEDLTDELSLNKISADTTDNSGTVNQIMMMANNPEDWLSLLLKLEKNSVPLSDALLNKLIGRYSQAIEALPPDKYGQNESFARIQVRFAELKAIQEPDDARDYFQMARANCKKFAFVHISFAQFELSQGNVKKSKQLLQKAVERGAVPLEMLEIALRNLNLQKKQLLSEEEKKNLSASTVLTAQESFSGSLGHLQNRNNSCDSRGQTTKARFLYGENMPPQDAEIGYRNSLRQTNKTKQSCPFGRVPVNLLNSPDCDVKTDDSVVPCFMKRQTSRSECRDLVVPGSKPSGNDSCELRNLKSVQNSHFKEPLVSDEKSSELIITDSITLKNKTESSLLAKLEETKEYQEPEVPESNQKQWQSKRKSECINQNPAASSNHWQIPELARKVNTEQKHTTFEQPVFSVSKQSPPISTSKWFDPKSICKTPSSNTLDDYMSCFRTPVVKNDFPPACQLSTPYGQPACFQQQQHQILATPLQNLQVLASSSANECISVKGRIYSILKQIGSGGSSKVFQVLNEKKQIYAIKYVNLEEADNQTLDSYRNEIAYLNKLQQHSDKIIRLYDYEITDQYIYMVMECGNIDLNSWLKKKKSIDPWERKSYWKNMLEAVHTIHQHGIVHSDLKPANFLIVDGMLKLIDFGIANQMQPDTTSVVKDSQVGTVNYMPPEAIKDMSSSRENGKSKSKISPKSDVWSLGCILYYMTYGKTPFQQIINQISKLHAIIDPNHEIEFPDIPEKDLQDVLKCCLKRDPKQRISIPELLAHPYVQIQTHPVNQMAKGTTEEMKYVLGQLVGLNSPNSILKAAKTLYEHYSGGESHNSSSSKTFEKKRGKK

PKCα = PKCα (Homo sapiens, UniProt P17252); experiment: Kinase profiling panel; format: biochemical; settings: read-out: percentage of kinase activity compared with control
GCK = target: T3, GCK (Homo sapiens, UniProt Q12851); experiment: Kinase profiling panel; format: biochemical; settings: read-out: percentage of kinase activity compared with control
T3 sequence (Q12851 1-820): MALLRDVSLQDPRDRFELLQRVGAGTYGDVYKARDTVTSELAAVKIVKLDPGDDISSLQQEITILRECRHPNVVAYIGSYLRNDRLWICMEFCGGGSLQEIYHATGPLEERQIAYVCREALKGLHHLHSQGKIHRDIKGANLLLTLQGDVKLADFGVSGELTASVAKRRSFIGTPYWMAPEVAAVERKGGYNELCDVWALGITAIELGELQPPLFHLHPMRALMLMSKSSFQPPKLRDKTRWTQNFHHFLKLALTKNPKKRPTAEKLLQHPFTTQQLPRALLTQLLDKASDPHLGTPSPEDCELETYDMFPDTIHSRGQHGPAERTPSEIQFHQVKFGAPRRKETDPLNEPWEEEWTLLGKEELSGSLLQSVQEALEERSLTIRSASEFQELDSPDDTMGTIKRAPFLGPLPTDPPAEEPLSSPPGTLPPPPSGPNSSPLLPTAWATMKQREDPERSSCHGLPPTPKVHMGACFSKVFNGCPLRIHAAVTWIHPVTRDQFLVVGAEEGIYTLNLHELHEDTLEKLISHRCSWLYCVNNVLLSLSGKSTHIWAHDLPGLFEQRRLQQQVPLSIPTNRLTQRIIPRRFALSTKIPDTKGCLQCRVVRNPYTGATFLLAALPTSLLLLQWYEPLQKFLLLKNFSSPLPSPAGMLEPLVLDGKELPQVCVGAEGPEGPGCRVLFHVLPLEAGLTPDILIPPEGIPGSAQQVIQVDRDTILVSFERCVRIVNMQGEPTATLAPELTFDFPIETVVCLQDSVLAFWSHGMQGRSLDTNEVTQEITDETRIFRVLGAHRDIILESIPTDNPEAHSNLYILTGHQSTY

Aurora B kinase = Aurora B kinase (Homo sapiens, UniProt Q96GD4); experiment: Kinase profiling panel; format: biochemical; settings: read-out: percentage of kinase activity compared with control
BRSK2 = target: T4, BRSK2 (Homo sapiens, UniProt Q8IWQ3); experiment: Kinase profiling panel; format: biochemical; settings: read-out: percentage of kinase activity compared with control
T4 sequence (Q8IWQ3 1-736): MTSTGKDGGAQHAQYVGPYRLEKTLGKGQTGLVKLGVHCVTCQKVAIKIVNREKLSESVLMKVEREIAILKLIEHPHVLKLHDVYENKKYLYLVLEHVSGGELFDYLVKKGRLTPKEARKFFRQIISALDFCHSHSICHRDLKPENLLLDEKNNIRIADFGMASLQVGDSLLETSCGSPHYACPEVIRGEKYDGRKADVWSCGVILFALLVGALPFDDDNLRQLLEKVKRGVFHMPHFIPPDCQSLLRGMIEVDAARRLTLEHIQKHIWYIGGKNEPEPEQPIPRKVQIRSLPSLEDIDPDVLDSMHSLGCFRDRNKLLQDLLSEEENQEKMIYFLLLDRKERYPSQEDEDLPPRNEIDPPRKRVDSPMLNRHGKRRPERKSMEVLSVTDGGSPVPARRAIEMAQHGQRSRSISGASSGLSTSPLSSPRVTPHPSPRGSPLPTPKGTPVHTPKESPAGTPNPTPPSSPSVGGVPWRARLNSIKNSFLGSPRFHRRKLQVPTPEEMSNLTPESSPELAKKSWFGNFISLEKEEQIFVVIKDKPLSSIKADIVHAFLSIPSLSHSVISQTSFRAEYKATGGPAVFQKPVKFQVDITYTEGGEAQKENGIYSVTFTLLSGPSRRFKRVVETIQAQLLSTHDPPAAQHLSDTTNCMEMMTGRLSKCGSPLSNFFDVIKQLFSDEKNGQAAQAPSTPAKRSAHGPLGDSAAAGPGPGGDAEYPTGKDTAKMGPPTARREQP

IRR = IRR (Homo sapiens, UniProt P14616); experiment: Kinase profiling panel; format: biochemical; settings: read-out: percentage of kinase activity compared with control
SmMLCK = SmMLCK (Homo sapiens, UniProt Q15746); experiment: Kinase profiling panel; format: biochemical; settings: read-out: percentage of kinase activity compared with control
LRRK2 = settings: cited from earlier work
IGF-1R = IGF-1R (Homo sapiens, UniProt P08069); experiment: Kinase profiling panel; format: biochemical; settings: read-out: percentage of kinase activity compared with control
PHK = PHK (Homo sapiens, UniProt Q16816); experiment: Kinase profiling panel; format: biochemical; settings: read-out: percentage of kinase activity compared with control
PAK4 = PAK4 (Homo sapiens, UniProt O96013); experiment: Kinase profiling panel; format: biochemical; settings: read-out: percentage of kinase activity compared with control
FGFR1 = FGFR1 (Homo sapiens, UniProt P11362); experiment: Kinase profiling panel; format: biochemical; settings: read-out: percentage of kinase activity compared with control
AMPK = experiment: Kinase profiling panel; format: biochemical; settings: 0.1 μM inhibitor
SGK1 = target: T5, SGK1 (Homo sapiens, UniProt O00141); experiment: Kinase profiling panel; format: biochemical; settings: read-out: percentage of kinase activity compared with control
T5 sequence (O00141 1-431): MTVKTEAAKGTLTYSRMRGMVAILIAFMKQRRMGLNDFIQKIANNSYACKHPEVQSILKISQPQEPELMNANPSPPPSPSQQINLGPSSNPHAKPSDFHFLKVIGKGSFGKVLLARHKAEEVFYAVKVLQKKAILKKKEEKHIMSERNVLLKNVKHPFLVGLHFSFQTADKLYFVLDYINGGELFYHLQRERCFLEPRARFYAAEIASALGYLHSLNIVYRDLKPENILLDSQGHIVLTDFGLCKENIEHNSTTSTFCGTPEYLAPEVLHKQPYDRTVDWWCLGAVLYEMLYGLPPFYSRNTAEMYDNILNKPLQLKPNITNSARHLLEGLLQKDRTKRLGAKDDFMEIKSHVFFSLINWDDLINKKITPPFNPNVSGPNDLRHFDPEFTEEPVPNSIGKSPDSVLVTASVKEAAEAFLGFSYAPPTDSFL

CK2 = CK2 (Homo sapiens, UniProt P68400); experiment: Kinase profiling panel; format: biochemical; settings: read-out: percentage of kinase activity compared with control

endogenous LRRK2 from Swiss-3T3 cells, sequence (Q5S006 whole entry): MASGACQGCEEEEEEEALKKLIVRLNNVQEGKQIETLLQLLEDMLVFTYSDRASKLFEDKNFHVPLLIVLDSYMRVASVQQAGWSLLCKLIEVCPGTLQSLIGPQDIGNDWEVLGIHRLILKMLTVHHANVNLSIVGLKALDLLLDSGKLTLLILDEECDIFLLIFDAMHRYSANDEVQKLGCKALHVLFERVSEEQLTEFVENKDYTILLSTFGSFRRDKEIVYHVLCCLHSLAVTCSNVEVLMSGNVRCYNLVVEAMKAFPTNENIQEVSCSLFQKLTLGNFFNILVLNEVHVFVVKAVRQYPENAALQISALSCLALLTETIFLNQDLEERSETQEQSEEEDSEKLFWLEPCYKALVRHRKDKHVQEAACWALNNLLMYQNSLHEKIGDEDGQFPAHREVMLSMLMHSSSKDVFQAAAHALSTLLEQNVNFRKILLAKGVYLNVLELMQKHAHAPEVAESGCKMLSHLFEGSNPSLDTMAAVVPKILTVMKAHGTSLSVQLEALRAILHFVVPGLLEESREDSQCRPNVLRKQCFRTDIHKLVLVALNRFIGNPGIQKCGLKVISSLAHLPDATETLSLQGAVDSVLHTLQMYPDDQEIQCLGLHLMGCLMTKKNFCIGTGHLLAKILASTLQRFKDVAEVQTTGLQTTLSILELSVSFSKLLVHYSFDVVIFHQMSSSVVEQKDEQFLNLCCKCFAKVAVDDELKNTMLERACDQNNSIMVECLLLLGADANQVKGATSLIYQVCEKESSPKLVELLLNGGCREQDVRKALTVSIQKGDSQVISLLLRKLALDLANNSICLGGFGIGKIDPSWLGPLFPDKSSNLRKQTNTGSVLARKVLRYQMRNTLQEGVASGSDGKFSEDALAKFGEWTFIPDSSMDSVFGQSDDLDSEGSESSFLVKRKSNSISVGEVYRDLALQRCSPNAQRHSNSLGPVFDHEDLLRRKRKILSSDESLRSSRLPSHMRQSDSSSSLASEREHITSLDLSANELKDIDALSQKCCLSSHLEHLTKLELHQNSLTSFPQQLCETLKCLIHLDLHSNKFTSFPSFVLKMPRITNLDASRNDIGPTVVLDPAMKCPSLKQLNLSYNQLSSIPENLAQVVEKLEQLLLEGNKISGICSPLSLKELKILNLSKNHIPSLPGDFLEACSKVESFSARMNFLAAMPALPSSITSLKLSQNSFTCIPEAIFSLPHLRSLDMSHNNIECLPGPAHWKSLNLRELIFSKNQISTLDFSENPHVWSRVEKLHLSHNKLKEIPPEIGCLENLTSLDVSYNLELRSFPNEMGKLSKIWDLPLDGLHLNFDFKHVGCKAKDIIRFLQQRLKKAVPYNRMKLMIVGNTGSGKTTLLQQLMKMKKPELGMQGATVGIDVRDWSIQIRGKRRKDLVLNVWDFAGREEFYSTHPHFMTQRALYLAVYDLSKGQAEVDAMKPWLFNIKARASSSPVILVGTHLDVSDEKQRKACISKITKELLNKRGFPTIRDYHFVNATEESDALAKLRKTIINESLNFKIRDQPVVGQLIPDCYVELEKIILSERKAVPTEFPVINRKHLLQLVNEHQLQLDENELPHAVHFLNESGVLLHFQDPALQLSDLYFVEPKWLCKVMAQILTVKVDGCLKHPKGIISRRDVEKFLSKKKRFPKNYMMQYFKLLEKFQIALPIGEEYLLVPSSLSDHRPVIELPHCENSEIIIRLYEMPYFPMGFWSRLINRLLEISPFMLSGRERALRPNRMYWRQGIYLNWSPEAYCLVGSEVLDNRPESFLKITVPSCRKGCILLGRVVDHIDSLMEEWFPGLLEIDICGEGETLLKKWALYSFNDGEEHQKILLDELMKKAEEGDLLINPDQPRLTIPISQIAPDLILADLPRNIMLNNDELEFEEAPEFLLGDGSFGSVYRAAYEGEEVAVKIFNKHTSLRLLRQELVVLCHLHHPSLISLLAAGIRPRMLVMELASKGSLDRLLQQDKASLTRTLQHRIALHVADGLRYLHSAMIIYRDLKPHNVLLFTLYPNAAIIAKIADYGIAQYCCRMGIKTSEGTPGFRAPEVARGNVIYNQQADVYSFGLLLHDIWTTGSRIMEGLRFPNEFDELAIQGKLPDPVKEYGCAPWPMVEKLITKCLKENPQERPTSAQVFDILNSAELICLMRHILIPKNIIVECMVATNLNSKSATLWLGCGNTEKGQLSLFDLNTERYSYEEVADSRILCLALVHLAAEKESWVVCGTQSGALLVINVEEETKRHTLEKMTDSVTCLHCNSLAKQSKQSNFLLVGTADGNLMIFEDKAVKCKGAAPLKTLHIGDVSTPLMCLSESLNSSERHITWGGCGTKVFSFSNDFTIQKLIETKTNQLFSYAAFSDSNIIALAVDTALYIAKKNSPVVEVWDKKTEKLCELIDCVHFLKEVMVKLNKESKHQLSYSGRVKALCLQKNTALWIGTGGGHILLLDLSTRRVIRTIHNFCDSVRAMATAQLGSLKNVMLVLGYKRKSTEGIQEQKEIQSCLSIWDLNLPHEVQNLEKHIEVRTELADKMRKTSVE
IRR, sequence (P14616 27-1297): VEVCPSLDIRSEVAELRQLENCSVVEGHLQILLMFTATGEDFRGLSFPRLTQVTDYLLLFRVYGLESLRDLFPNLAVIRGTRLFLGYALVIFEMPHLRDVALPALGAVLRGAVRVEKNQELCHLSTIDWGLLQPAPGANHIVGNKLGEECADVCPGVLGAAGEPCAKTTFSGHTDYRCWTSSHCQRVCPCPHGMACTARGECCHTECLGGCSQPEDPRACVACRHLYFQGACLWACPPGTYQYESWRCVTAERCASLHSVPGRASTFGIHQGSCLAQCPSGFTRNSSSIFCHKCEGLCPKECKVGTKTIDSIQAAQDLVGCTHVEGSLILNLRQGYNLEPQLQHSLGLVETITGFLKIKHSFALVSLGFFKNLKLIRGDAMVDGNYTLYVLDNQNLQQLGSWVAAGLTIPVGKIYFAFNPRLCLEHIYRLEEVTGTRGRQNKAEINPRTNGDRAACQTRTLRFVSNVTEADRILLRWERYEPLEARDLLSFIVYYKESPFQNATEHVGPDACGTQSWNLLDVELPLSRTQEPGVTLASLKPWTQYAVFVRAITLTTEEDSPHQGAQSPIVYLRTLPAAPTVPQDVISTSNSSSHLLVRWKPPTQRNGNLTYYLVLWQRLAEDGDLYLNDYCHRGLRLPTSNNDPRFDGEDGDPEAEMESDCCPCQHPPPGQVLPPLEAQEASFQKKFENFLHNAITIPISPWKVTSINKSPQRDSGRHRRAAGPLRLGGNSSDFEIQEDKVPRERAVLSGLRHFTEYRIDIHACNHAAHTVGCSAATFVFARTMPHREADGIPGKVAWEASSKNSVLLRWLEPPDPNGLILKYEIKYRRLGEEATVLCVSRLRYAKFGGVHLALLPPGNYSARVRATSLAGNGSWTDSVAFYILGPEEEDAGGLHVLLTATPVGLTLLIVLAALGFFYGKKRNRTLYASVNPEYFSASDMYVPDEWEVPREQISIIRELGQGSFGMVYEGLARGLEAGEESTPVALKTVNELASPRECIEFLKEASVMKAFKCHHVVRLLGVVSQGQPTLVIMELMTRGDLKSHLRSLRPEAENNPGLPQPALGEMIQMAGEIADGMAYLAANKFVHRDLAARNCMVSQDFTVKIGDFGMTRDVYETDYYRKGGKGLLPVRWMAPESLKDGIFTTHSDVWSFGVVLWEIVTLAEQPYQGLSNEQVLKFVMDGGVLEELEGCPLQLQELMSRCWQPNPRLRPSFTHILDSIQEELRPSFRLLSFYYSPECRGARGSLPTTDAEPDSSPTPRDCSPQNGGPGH
FGFR1, sequence (P11362 22-822): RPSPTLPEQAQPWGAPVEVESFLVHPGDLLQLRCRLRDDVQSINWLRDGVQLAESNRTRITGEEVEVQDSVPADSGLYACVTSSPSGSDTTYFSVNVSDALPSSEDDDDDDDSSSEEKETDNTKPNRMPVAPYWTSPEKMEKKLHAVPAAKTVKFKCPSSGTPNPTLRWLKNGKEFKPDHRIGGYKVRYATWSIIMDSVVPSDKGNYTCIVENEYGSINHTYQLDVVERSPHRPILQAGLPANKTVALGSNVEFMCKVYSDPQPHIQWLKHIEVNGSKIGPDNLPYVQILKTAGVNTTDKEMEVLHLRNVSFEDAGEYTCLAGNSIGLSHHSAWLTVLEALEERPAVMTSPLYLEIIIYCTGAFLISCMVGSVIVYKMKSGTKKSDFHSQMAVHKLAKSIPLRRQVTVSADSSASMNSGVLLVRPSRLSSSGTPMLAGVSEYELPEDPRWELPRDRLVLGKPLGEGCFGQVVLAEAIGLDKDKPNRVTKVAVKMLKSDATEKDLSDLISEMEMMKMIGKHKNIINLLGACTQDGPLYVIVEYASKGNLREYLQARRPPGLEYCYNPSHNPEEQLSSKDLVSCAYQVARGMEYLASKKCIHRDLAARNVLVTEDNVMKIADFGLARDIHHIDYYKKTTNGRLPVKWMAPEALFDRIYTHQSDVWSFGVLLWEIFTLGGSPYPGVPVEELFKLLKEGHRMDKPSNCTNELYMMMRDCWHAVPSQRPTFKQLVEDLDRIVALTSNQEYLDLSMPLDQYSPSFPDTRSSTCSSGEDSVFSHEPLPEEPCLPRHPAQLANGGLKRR
Aurora B kinase, sequence (Q96GD4 whole entry): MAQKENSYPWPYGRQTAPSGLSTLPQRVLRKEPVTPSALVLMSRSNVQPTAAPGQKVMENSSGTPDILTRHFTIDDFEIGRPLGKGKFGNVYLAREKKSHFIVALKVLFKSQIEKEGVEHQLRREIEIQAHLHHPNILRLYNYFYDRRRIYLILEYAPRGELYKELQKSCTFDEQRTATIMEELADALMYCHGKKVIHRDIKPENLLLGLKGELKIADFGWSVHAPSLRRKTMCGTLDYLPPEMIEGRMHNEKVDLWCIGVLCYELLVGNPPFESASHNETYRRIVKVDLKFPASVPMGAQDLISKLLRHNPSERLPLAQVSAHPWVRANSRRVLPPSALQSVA

## CCn1c(-c2nonc2N)nc2cnc(Oc3cccc(NC(=O)c4ccc(OCCN5CCOCC5)cc4)c3)cc21 [GSK269962A]
[1]
  effect on ERM protein phosphorylation: did not inhibit
[2]
  effect on phosphorylation of MYPT at Thr850: ablated phosphorylation
[3]
  number of kinases significantly inhibited: seven

## CC1=C(C(=O)Nc2cc3cn[nH]c3cc2F)C(c2ccc(C(F)(F)F)cc2)CC(=O)N1 (stereo not shown) [GSK429286A]
[1]
  effect on ERM protein phosphorylation: did not inhibit
[4]; doses as high as 30 μM
  inhibition of LRRK2 at high dose (in words): does not significantly inhibit
[2]
  effect on phosphorylation of MYPT at Thr850: ablated phosphorylation

## O=S(=O)(NCCNCC=Cc1ccc(Br)cc1)c1cccc2cnccc12 [H-89, N-[2-(p-bromocinnamylamino)ethyl]-5-isoquinolinesulfonamide]
[4]
  inhibition of LRRK2[G2019S] (in words): weakly

## Cc1cncc2cccc(S(=O)(=O)N3CCCNC[C@@H]3C)c12 [H-1152, (S)-(+)-2-methyl-1-[(4-methyl-5-isoquinoline)sulfonyl]-homopiperazine]
[1]
  effect on ERM protein phosphorylation: did not inhibit
[5]
  effect on protein kinase activity in LRRK2 immunoprecipitate: suppressed
[2]
  effect on phosphorylation of MYPT at Thr850: ablated phosphorylation

## O=S(=O)(c1cccc2cnccc12)N1CCCNCC1 [HA-1077, fasudil]
[4]
  inhibition of LRRK2[G2019S] (in words): weakly

## CCN(CC)CCNC(=O)c1c(C)[nH]c(/C=C2\C(=O)Nc3ccc(F)cc32)c1C [Sunitinib, sunitinib]
TTK
  remaining activity at 1 µM: 72 ± 6%
[1]
  effect on ERM protein phosphorylation: did not inhibit
PKCα
  remaining activity at 1 µM: 77 ± 9%
GCK
  remaining activity at 1 µM: 11 ± 1%
Aurora B kinase
  remaining activity at 0.1 µM: 72 ± 5%
BRSK2
  remaining activity at 1 µM: 40 ± 6%
IRR
  remaining activity at 1 µM: 77 ± 24%
SmMLCK
  remaining activity at 1 µM: 26 ± 3%
LRRK2
  IC50: […]
IGF-1R
  remaining activity at 1 µM: 33 ± 6%
[5]
  effect on protein kinase activity in LRRK2 immunoprecipitate: suppressed
PHK
  remaining activity at 0.1 µM: 11 ± 1%
PAK4
  remaining activity at 1 µM: 72 ± 5%
[3]
  number of kinases significantly inhibited: 12
FGFR1
  remaining activity at 0.1 µM: 77 ± 2%
AMPK
  percentage of kinase activity compared with control: 51 ± 3%
SGK1
  remaining activity at 1 µM: 26 ± 5%
CK2
  remaining activity at 1 µM: 72 ± 1%

## C[C@@H](N)[C@H]1CC[C@H](C(=O)Nc2ccncc2)CC1 [Y-27632]
[1]
  effect on ERM protein phosphorylation: did not inhibit
[2]
  effect on phosphorylation of MYPT at Thr850: ablated phosphorylation
